Measured values taken from PubChem BioAssay AID504473 (NMMLSC, 2011).
Active and inactive are the calls of the source.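 The calls were made as follows: active = GFP ratio to DMSO above 1.5 or below 0.66; inactive = the rest.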

Key:
Test in all cases: expression changes of rapamycin-responsive GFP fusion proteins, S. cerevisiae, GFP-tagged clone panel, flow cytometry (AID 504473);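 also: median GFP fluorescence of the cells measured by high-throughput flow cytometry; test concentration not given here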
[1] = system: YHL021C; settings: S. cerevisiae GFP-tagged strains, 3 h
[2] = system: YHR141C; settings: S. cerevisiae GFP-tagged strains, 3 h
[3] = target: General amino acid permease AGP1 (Saccharomyces cerevisiae S288c) (UniProt P25376); settings: S. cerevisiae GFP-tagged strains, 3 h, YCL025C
Sequence of General amino acid permease AGP1 (Saccharomyces cerevisiae S288c) (P25376 whole entry, looked up): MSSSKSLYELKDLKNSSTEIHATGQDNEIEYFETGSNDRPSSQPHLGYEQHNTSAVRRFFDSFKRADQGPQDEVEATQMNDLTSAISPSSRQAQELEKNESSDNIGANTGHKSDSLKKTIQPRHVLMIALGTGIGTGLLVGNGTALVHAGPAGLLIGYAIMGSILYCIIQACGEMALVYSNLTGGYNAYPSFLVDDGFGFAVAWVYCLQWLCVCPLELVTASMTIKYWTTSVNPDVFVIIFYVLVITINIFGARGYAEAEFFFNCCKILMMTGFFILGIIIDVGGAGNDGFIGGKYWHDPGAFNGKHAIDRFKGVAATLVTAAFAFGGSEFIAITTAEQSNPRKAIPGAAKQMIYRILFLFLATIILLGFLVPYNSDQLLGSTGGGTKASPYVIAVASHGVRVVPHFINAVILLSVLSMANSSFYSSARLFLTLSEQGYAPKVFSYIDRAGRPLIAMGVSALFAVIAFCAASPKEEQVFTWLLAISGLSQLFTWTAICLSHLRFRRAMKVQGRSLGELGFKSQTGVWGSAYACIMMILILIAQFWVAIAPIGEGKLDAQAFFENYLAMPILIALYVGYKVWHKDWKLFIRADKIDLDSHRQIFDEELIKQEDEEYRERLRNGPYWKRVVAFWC

[4] = system: YPR132W; settings: S. cerevisiae GFP-tagged strains, 3 h
[5] = system: YMR307W; settings: S. cerevisiae GFP-tagged strains, 3 h
[6] = system: YFR053C; settings: S. cerevisiae GFP-tagged strains, 3 h
[7] = system: YLR367W; settings: S. cerevisiae GFP-tagged strains, 3 h
[8] = system: YMR251W-A; settings: S. cerevisiae GFP-tagged strains, 3 h
[9] = system: YOR063W; settings: S. cerevisiae GFP-tagged strains, 3 h
[10] = system: YDL205C; settings: S. cerevisiae GFP-tagged strains, 3 h
[11] = system: YLR142W; settings: S. cerevisiae GFP-tagged strains, 3 h
[12] = system: YGL147C; settings: S. cerevisiae GFP-tagged strains, 3 h
[13] = system: YDL204W; settings: S. cerevisiae GFP-tagged strains, 3 h
[14] = system: YBR208C; settings: S. cerevisiae GFP-tagged strains, 3 h
[15] = system: YDR382W; settings: S. cerevisiae GFP-tagged strains, 3 h
[16] = system: YML034W; settings: S. cerevisiae GFP-tagged strains, 3 h
[17] = system: YNL214W; settings: S. cerevisiae GFP-tagged strains, 3 h
[18] = system: YKR094C; settings: S. cerevisiae GFP-tagged strains, 3 h
[19] = system: YGL062W; settings: S. cerevisiae GFP-tagged strains, 3 h
[20] = system: YER151C; settings: S. cerevisiae GFP-tagged strains, 3 h
[21] = system: YGL135W; settings: S. cerevisiae GFP-tagged strains, 3 h
[22] = system: YIL043C; settings: S. cerevisiae GFP-tagged strains, 3 h
[23] = system: YKL103C; settings: S. cerevisiae GFP-tagged strains, 3 h
[24] = system: YOR371C; settings: S. cerevisiae GFP-tagged strains, 3 h
[25] = system: YML063W; settings: S. cerevisiae GFP-tagged strains, 3 h
[26] = system: YOR038C; settings: S. cerevisiae GFP-tagged strains, 3 h
[27] = system: YJR148W; settings: S. cerevisiae GFP-tagged strains, 3 h
[28] = system: YHR144C; settings: S. cerevisiae GFP-tagged strains, 3 h
[29] = system: YOR182C; settings: S. cerevisiae GFP-tagged strains, 3 h
[30] = system: YIL069C; settings: S. cerevisiae GFP-tagged strains, 3 h
[31] = system: YOR173W; settings: S. cerevisiae GFP-tagged strains, 3 h
[32] = system: YNL015W; settings: S. cerevisiae GFP-tagged strains, 3 h
[33] = system: YPR184W; settings: S. cerevisiae GFP-tagged strains, 3 h
[34] = system: YBR072W; settings: S. cerevisiae GFP-tagged strains, 3 h
[35] = system: YGR019W; settings: S. cerevisiae GFP-tagged strains, 3 h
[36] = system: YCL064C; settings: S. cerevisiae GFP-tagged strains, 3 h
[37] = system: YEL007W; settings: S. cerevisiae GFP-tagged strains, 3 h
[38] = system: YAL060W; settings: S. cerevisiae GFP-tagged strains, 3 h
[39] = system: YIL066C; settings: S. cerevisiae GFP-tagged strains, 3 h
[40] = system: YGR088W; settings: S. cerevisiae GFP-tagged strains, 3 h
[41] = system: YLL026W; settings: S. cerevisiae GFP-tagged strains, 3 h
[42] = system: YOR136W; settings: S. cerevisiae GFP-tagged strains, 3 h
[43] = system: YKR093W; settings: S. cerevisiae GFP-tagged strains, 3 h
[44] = system: YOR375C; settings: S. cerevisiae GFP-tagged strains, 3 h
[45] = system: YLL039C; settings: S. cerevisiae GFP-tagged strains, 3 h
[46] = system: YLR185W; settings: S. cerevisiae GFP-tagged strains, 3 h
[47] = system: YER156C; settings: S. cerevisiae GFP-tagged strains, 3 h
[48] = system: YOL052C-A; settings: S. cerevisiae GFP-tagged strains, 3 h
[49] = system: YPL265W; settings: S. cerevisiae GFP-tagged strains, 3 h
[50] = system: YHR203C; settings: S. cerevisiae GFP-tagged strains, 3 h
[51] = system: YCR005C; settings: S. cerevisiae GFP-tagged strains, 3 h
[52] = system: YKL119C; settings: S. cerevisiae GFP-tagged strains, 3 h
[53] = system: YEL071W; settings: S. cerevisiae GFP-tagged strains, 3 h
[54] = system: YDR070C; settings: S. cerevisiae GFP-tagged strains, 3 h
[55] = system: YKR039W; settings: S. cerevisiae GFP-tagged strains, 3 h
[56] = system: YFR031C-A; settings: S. cerevisiae GFP-tagged strains, 3 h
[57] = system: YMR105C; settings: S. cerevisiae GFP-tagged strains, 3 h
[58] = system: YHR087W; settings: S. cerevisiae GFP-tagged strains, 3 h
[59] = system: YLR287C-A; settings: S. cerevisiae GFP-tagged strains, 3 h
[60] = system: YBR248C; settings: S. cerevisiae GFP-tagged strains, 3 h
[61] = system: YLR058C; settings: S. cerevisiae GFP-tagged strains, 3 h
[62] = system: YNL068C; settings: S. cerevisiae GFP-tagged strains, 3 h
[63] = system: YNR001C; settings: S. cerevisiae GFP-tagged strains, 3 h
[64] = system: YJL056C; settings: S. cerevisiae GFP-tagged strains, 3 h
[65] = system: YDL130W; settings: S. cerevisiae GFP-tagged strains, 3 h
[66] = system: YLR237W; settings: S. cerevisiae GFP-tagged strains, 3 h
[67] = system: YER117W; settings: S. cerevisiae GFP-tagged strains, 3 h
[68] = system: YPR145W; settings: S. cerevisiae GFP-tagged strains, 3 h
[69] = system: YHR018C; settings: S. cerevisiae GFP-tagged strains, 3 h
[70] = system: YML004C; settings: S. cerevisiae GFP-tagged strains, 3 h
[71] = system: YLR109W; settings: S. cerevisiae GFP-tagged strains, 3 h
[72] = system: YPL131W; settings: S. cerevisiae GFP-tagged strains, 3 h
[73] = system: YJL144W; settings: S. cerevisiae GFP-tagged strains, 3 h
[74] = system: YDR399W; settings: S. cerevisiae GFP-tagged strains, 3 h
[75] = system: YKL086W; settings: S. cerevisiae GFP-tagged strains, 3 h
[76] = system: YPL111W; settings: S. cerevisiae GFP-tagged strains, 3 h
[77] = system: YIL051C; settings: S. cerevisiae GFP-tagged strains, 3 h
[78] = system: YNL142W; settings: S. cerevisiae GFP-tagged strains, 3 h
[79] = system: YGR121C; settings: S. cerevisiae GFP-tagged strains, 3 h
[80] = system: YMR120C; settings: S. cerevisiae GFP-tagged strains, 3 h
[81] = system: YGR034W; settings: S. cerevisiae GFP-tagged strains, 3 h
[82] = system: YER081W; settings: S. cerevisiae GFP-tagged strains, 3 h
[83] = system: YPL150W; settings: S. cerevisiae GFP-tagged strains, 3 h
[84] = system: YBR139W; settings: S. cerevisiae GFP-tagged strains, 3 h
[85] = system: YIL052C; settings: S. cerevisiae GFP-tagged strains, 3 h
[86] = system: YGL036W; settings: S. cerevisiae GFP-tagged strains, 3 h
[87] = system: YML026C; settings: S. cerevisiae GFP-tagged strains, 3 h
[88] = system: YNL112W; settings: S. cerevisiae GFP-tagged strains, 3 h
[89] = system: YCR002C; settings: S. cerevisiae GFP-tagged strains, 3 h
[90] = system: YML128C; settings: S. cerevisiae GFP-tagged strains, 3 h
[91] = system: YEL060C; settings: S. cerevisiae GFP-tagged strains, 3 h
[92] = system: YDR453C; settings: S. cerevisiae GFP-tagged strains, 3 h
[93] = system: YEL063C; settings: S. cerevisiae GFP-tagged strains, 3 h
[94] = system: YAL061W; settings: S. cerevisiae GFP-tagged strains, 3 h
[95] = system: YPL220W; settings: S. cerevisiae GFP-tagged strains, 3 h
[96] = system: YBL087C; settings: S. cerevisiae GFP-tagged strains, 3 h

GFP ratio to DMSO [3]: 2.27
Structure (SMILES): CO[C@H]1C[C@@H]2CC[C@@H](C)[C@@](O)(O2)C(=O)C(=O)N2CCCC[C@H]2C(=O)O[C@H]([C@H](C)C[C@@H]2CC[C@@H](O)[C@H](OC)C2)CC(=O)[C@H](C)/C=C(\C)[C@@H](O)[C@@H](OC)C(=O)[C@H](C)C[C@H](C)/C=C/C=C/C=C/1C
GFP ratio to DMSO [1]: 2.52
GFP ratio to DMSO [2]: 0.777 (inactive)
GFP ratio to DMSO [4]: 0.366
GFP ratio to DMSO [5]: 0.685 (inactive)
GFP ratio to DMSO [6]: 1.66
GFP ratio to DMSO [7]: 0.635
GFP ratio to DMSO [8]: 1.96
GFP ratio to DMSO [9]: 0.703 (inactive)
GFP ratio to DMSO [10]: 0.898 (inactive)
GFP ratio to DMSO [11]: 1.41 (inactive)
GFP ratio to DMSO [12]: 0.682 (inactive)
GFP ratio to DMSO [13]: 1.4 (inactive)
GFP ratio to DMSO [14]: 3.04
GFP ratio to DMSO [15]: 0.783 (inactive)
GFP ratio to DMSO [16]: 1.04 (inactive)
GFP ratio to DMSO [17]: 1.06 (inactive)
GFP ratio to DMSO [18]: 0.484
GFP ratio to DMSO [19]: 2.27
GFP ratio to DMSO [20]: 1.03 (inactive)
GFP ratio to DMSO [21]: 0.682 (inactive)
GFP ratio to DMSO [22]: 0.996 (inactive)
GFP ratio to DMSO [23]: 2.8
GFP ratio to DMSO [24]: 1.06 (inactive)
GFP ratio to DMSO [25]: 0.714 (inactive)
GFP ratio to DMSO [26]: 1.21 (inactive)
GFP ratio to DMSO [27]: 3.38
GFP ratio to DMSO [28]: 0.869 (inactive)
GFP ratio to DMSO [29]: 0.576
GFP ratio to DMSO [30]: 0.171
GFP ratio to DMSO [31]: 1.86
GFP ratio to DMSO [32]: 1.88
GFP ratio to DMSO [33]: 2.01
GFP ratio to DMSO [34]: 4.94
GFP ratio to DMSO [35]: 1.93
GFP ratio to DMSO [36]: 1.28 (inactive)
GFP ratio to DMSO [37]: 1.05 (inactive)
GFP ratio to DMSO [38]: 3.23
GFP ratio to DMSO [39]: 1.17 (inactive)
GFP ratio to DMSO [40]: 2.06
GFP ratio to DMSO [41]: 2.05
GFP ratio to DMSO [42]: 1.51
GFP ratio to DMSO [43]: 3.56
GFP ratio to DMSO [44]: 1.78
GFP ratio to DMSO [45]: 1.77
GFP ratio to DMSO [46]: 0.705 (inactive)
GFP ratio to DMSO [47]: 1.05 (inactive)
GFP ratio to DMSO [48]: 2.68
GFP ratio to DMSO [49]: 3.22
GFP ratio to DMSO [50]: 0.685 (inactive)
GFP ratio to DMSO [51]: 4.59
GFP ratio to DMSO [52]: 1.03 (inactive)
GFP ratio to DMSO [53]: 2.11
GFP ratio to DMSO [54]: 4.12
GFP ratio to DMSO [55]: 12.7
GFP ratio to DMSO [56]: 0.481
GFP ratio to DMSO [57]: 2.65
GFP ratio to DMSO [58]: 2.24
GFP ratio to DMSO [59]: 0.625
GFP ratio to DMSO [60]: 1.11 (inactive)
GFP ratio to DMSO [61]: 1.04 (inactive)
GFP ratio to DMSO [62]: 1.06 (inactive)
GFP ratio to DMSO [63]: 1.7
GFP ratio to DMSO [64]: 0.954 (inactive)
GFP ratio to DMSO [65]: 0.717 (inactive)
GFP ratio to DMSO [66]: 0.864 (inactive)
GFP ratio to DMSO [67]: 0.304
GFP ratio to DMSO [68]: 2.19
GFP ratio to DMSO [69]: 1.54
GFP ratio to DMSO [70]: 1.5 (inactive)
GFP ratio to DMSO [71]: 1.43 (inactive)
GFP ratio to DMSO [72]: 0.781 (inactive)
GFP ratio to DMSO [73]: 2.03
GFP ratio to DMSO [74]: 0.946 (inactive)
GFP ratio to DMSO [75]: 1.49 (inactive)
GFP ratio to DMSO [76]: 2.16
GFP ratio to DMSO [77]: 1.4 (inactive)
GFP ratio to DMSO [78]: 15.6
GFP ratio to DMSO [79]: 1.72
GFP ratio to DMSO [80]: 0.612
GFP ratio to DMSO [81]: 0.689 (inactive)
GFP ratio to DMSO [82]: 1.08 (inactive)
GFP ratio to DMSO [83]: 1.04 (inactive)
GFP ratio to DMSO [84]: 1.61
GFP ratio to DMSO [85]: 0.619
GFP ratio to DMSO [86]: 0.919 (inactive)
GFP ratio to DMSO [87]: 0.289
GFP ratio to DMSO [88]: 0.73 (inactive)
GFP ratio to DMSO [89]: 0.98 (inactive)
GFP ratio to DMSO [90]: 2.56
GFP ratio to DMSO [91]: 2.55
GFP ratio to DMSO [92]: 2.58
GFP ratio to DMSO [93]: 1.7
GFP ratio to DMSO [94]: 2.14
GFP ratio to DMSO [95]: 0.887 (inactive)
GFP ratio to DMSO [96]: 0.33
